Measurements: patent US7973061B2, “Anaplastic lymphoma kinase modulators and methods of use” (Exelixis, Inc., priority 2004, dated 2011)
pIC50: −log10 of the molar value.

target: T1, ALK (baculovirus expressed human ALK kinase domain F1098-K1410) (Homo sapiens, UniProt Q9UM73); assay: biochemical; settings: 1 μM ATP, 4 μM poly-AEKY, 12 nM ALK, 2 hours at ambient temperature; read-out: ALK IC50
T1 construct: human ALK kinase domain F1098-K1410; made in house
In short: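 Baculovirus-expressed human ALK kinase domain (F1098-K1410) was run in a luciferase-coupled chemiluminescent format, with ATP near its KM. After 2 h at ambient temperature, remaining ATP was read by luciferase-luciferin luminescence. IC50 came from 10-point dose-response curves fitted to a four-parameter equation with Hill slope.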

T1 sequence (Q9UM73 1098-1410): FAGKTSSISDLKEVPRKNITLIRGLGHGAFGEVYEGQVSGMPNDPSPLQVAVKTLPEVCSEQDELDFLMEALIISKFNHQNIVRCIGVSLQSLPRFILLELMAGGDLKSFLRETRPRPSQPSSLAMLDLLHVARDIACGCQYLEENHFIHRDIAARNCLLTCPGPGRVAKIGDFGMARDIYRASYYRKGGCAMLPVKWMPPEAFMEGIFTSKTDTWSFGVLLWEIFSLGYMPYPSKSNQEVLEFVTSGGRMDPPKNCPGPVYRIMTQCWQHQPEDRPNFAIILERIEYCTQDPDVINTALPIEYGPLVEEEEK

Row | SMILES | pIC50
1 | O=C(COc1ccc(OC(F)(F)F)cc1)NCc1nc(C(=O)NCCC(c2ccccc2)c2ccccc2)cs1 [Entry 260, N-(3,3-diphenylpropyl)-2-({[({4-[(trifluoromethyl)oxy]phenyl}oxy)acetyl]amino}methyl)-1,3-thiazole-4-carboxamide] | 5.70 to 6.30
2 | O=C(COc1ccc(OC(F)(F)F)cc1)NCc1nc(C(=O)NCc2ccccc2Cl)co1 [Entry 261, N-[(2-chlorophenyl)methyl]-2-({[({4-[(trifluoromethyl)oxy]phenyl}oxy)acetyl]amino}methyl)-1,3-oxazole-4-carboxamide] | 5.70 to 6.30
3 | CC(C)CCC(C)NC(=O)c1csc(CNC(=O)COc2ccc(OC(F)(F)F)cc2)n1 (stereo not drawn) [Entry 262, N-(1,4-dimethylpentyl)-2-({[({4-[(trifluoromethyl)oxy]phenyl}oxy)acetyl]amino}methyl)-1,3-thiazole-4-carboxamide] | 5.70 to 6.30
4 | COc1ccccc1CNC(=O)c1csc(CNC(=O)COc2ccc(Cl)cc2)n1 [Entry 263, 2-[({[(4-chlorophenyl)oxy]acetyl}amino)methyl]-N-{[2-(methyloxy)phenyl]methyl}-1,3-thiazole-4-carboxamide] | 5.70 to 6.30
5 | C[C@H](NC(=O)c1coc(CNC(=O)COc2ccc(OC(F)(F)F)cc2)n1)C1CCCCC1 [Entry 264, N-[(1S)-1-cyclohexylethyl]-2-({[({4-[(trifluoromethyl)oxy]phenyl}oxy)acetyl]amino}methyl)-1,3-oxazole-4-carboxamide] | 5.70 to 6.30
6 | O=C(COc1ccc(OC(F)(F)F)cc1)NCc1nc(C(=O)NCC2CCCO2)cs1 (stereo not drawn) [Entry 265, N-(tetrahydrofuran-2-ylmethyl)-2-({[({4-[(trifluoromethyl)oxy]phenyl}oxy)acetyl]amino}methyl)-1,3-thiazole-4-carboxamide] | 5.70 to 6.30
7 | O=C(COc1ccc(OC(F)(F)F)cc1)NCc1nc(C(=O)N2CC[C@H]3CCCC[C@@H]3C2)cs1 [Entry 266, N-({4-[(4aR,8aS)-octahydroisoquinolin-2(1H)-ylcarbonyl]-1,3-thiazol-2-yl}methyl)-2-({4-[(trifluoromethyl)oxy]phenyl}oxy)acetamide] | 5.70 to 6.30
8 | O=C(COc1ccc(OC(F)(F)F)cc1)NCc1nc(C(=O)NCCCN2CCOCC2)cs1 [Entry 267, N-(3-morpholin-4-ylpropyl)-2-({[({4-[(trifluoromethyl)oxy]phenyl}oxy)acetyl]amino}methyl)-1,3-thiazole-4-carboxamide] | 5.70 to 6.30
9 | COCC(C)NC(=O)c1csc(CNC(=O)COc2ccc(OC(F)(F)F)cc2)n1 (stereo not drawn) [Entry 268, N-[1-methyl-2-(methyloxy)ethyl]-2-({[({4-[(trifluoromethyl)oxy]phenyl}oxy)acetyl]amino}methyl)-1,3-thiazole-4-carboxamide] | 5.70 to 6.30
10 | COCCCNC(=O)c1csc(CNC(=O)COc2ccc(OC(F)(F)F)cc2)n1 [Entry 269, N-[3-(methyloxy)propyl]-2-({[({4-[(trifluoromethyl)oxy]phenyl}oxy)acetyl]amino}methyl)-1,3-thiazole-4-carboxamide] | 5.70 to 6.30
11 | CCN(CC)C(=O)C1CCCN(C(=O)c2csc(CNC(=O)COc3ccc(OC(F)(F)F)cc3)n2)C1 (stereo not drawn) [Entry 270, N,N-diethyl-1-{[2-({[({4-[(trifluoromethyl)oxy]phenyl}oxy)acetyl]amino}methyl)-1,3-thiazol-4-yl]carbonyl}piperidine-3-carboxamide] | 5.70 to 6.30
12 | O=C(COc1ccc(OC(F)(F)F)cc1)NCc1nc(C(=O)N2CC[C@@H]3CCCC[C@@H]3C2)cs1 [Entry 271, N-({4-[(4aS,8aS)-octahydroisoquinolin-2(1H)-ylcarbonyl]-1,3-thiazol-2-yl}methyl)-2-({4-[(trifluoromethyl)oxy]phenyl}oxy)acetamide] | 5.70 to 6.30
13 | NC(=O)C1CCN(C(=O)c2csc(CNC(=O)COc3ccc(OC(F)(F)F)cc3)n2)CC1 [Entry 272, 1-{[2-({[({4-[(trifluoromethyl)oxy]phenyl}oxy)acetyl]amino}methyl)-1,3-thiazol-4-yl]carbonyl}piperidine-4-carboxamide] | 5.70 to 6.30

Second part, the molecule after the results:

Row | pIC50 | SMILES
14 | 5.70 to 6.30 | O=C(COc1ccc(OC(F)(F)F)cc1)NCc1nc(C(=O)NCc2ccco2)cs1 [Entry 249, N-(furan-2-ylmethyl)-2-({[({4-[(trifluoromethyl)oxy]phenyl}oxy)acetyl]amino}methyl)-1,3-thiazole-4-carboxamide]
15 | 5.70 to 6.30 | CCOc1cc(CCNC(=O)c2coc(CNC(=O)COc3ccc(OC(F)(F)F)cc3)n2)ccc1OC [Entry 250, N-{2-[3-(ethyloxy)-4-(methyloxy)phenyl]ethyl}-2-({[({4-[(trifluoromethyl)oxy]phenyl}oxy)acetyl]amino}methyl)-1,3-oxazole-4-carboxamide]
16 | 5.70 to 6.30 | O=C(COc1ccc(OC(F)(F)F)cc1)NCc1nc(C(=O)NCCc2c[nH]c3ccccc23)co1 [Entry 251, N-[2-(1H-indol-3-yl)ethyl]-2-({[({4-[(trifluoromethyl)oxy]phenyl}oxy)acetyl]amino}methyl)-1,3-oxazole-4-carboxamide]
17 | 5.70 to 6.30 | O=C(COc1ccc(OC(F)(F)F)cc1)NCc1nc(C(=O)N2CCCC3CCCCC32)cs1 (stereo not drawn) [Entry 252, N-{[4-(octahydroquinolin-1(2H)-ylcarbonyl)-1,3-thiazol-2-yl]methyl}-2-({4-[(trifluoromethyl)oxy]phenyl}oxy)acetamide]
18 | 5.70 to 6.30 | CC1CN(C(=O)c2csc(CNC(=O)COc3ccc(OC(F)(F)F)cc3)n2)CCN1c1ccccc1 (stereo not drawn) [Entry 253, N-({4-[(3-methyl-4-phenylpiperazin-1-yl)carbonyl]-1,3-thiazol-2-yl}methyl)-2-({4-[(trifluoromethyl)oxy]phenyl}oxy)acetamide]
19 | 5.70 to 6.30 | CC(C)(C)OC(=O)NC1CCN(C(=O)c2csc(CNC(=O)COc3ccc(OC(F)(F)F)cc3)n2)CC1 [Entry 254, 1,1-dimethylethyl(1-{[2-({[({4-[(trifluoromethyl)oxy]phenyl}oxy)acetyl]amino}methyl)-1,3-thiazol-4-yl]carbonyl}piperidin-4-yl)carbamate]
20 | 5.70 to 6.30 | C[C@@H]1CN(C(=O)c2csc(CNC(=O)COc3ccc(OC(F)(F)F)cc3)n2)C[C@H](C)O1 [Entry 255, N-[(4-{[(2R,6S)-2,6-dimethylmorpholin-4-yl]carbonyl}-1,3-thiazol-2-yl)methyl]-2-({4-[(trifluoromethyl)oxy]phenyl}oxy)acetamide]
21 | 5.70 to 6.30 | COc1cccc(CNC(=O)c2csc(CNC(=O)Cc3ccc4ccccc4c3)n2)c1OC [Entry 256, N-{[2,3-bis(methyloxy)phenyl]methyl}-2-{[(naphthalen-2-ylacetyl)amino]methyl}-1,3-thiazole-4-carboxamide]
22 | 5.70 to 6.30 | CC1CCCCC1NC(=O)c1coc(CNC(=O)COc2ccc(OC(F)(F)F)cc2)n1 (stereo not drawn) [Entry 257, N-(2-methylcyclohexyl)-2-({[({4-[(trifluoromethyl)oxy]phenyl}oxy)acetyl]amino}methyl)-1,3-oxazole-4-carboxamide]
23 | 5.70 to 6.30 | O=C(COc1ccc(OC(F)(F)F)cc1)NCc1nc(C(=O)NCc2ccc(F)cc2F)cs1 [Entry 258, N-[(2,4-difluorophenyl)methyl]-2-({[({4-[(trifluoromethyl)oxy]phenyl}oxy)acetyl]amino}methyl)-1,3-thiazole-4-carboxamide]
24 | 5.70 to 6.30 | CC(CNC(=O)c1coc(CNC(=O)COc2ccc(OC(F)(F)F)cc2)n1)c1ccccc1 (stereo not drawn) [Entry 259, N-(2-phenylpropyl)-2-({[({4-[(trifluoromethyl)oxy]phenyl}oxy)acetyl]amino}methyl)-1,3-oxazole-4-carboxamide]
